This note sets out measurements from US20040142981A1, “Antibacterial benzoic acid derivatives” (priority 2002, published 2004).

One data set concerns SAUR 9218. Nature of the data set: MIC by standard agar dilution method. It counts as cell-based. As to conditions: Mueller Hinton agar, incubated overnight at 35° C., lowest concentration that inhibits visible growth. The protocol: MIC Test Method The in vitro MICs of test compounds were determined by a standard agar dilution method. A stock drug solution of each analog was prepared in the preferred solvent, usually DMSO:H2O (1:3). Serial 2-fold dilutions of each sample are made using 1.0 ml aliquots of sterile distilled water. To each 1.0 ml aliquot of drug was added 9 ml of molten Mueller Hinton agar medium. The drug-supplemented agar was mixed, poured into 15×100 mm petri dishes, and allowed to solidify and dry prior to inoculation. Vials of each of the test organisms are maintained frozen in the vapor phase of a liquid nitrogen freezer. Test cultures are grown overnight at 35° C. on the medium appropriate for the organism. Colonies are harvested with a sterile swab, and cell suspensions are prepared in Trypticase Soy broth (TSB) to equal the turbidity of a 0.5 McFarland standard. A 1:20 dilution of each suspension was made in TSB. The plates containing the drug supplemented agar are inoculated with a 0.001 ml drop of the cell suspension using a Steers replicator, yielding approximately 10^4 to 10^5 cells per spot. The plates are incubated overnight at 35° C. Following incubation the Minimum Inhibitory Concentration (MIC μg/ml), the lowest concentration of drug that inhibits visible growth of the organism, was read and recorded.
A general note: In agar dilution the substance is mixed into plates at graded concentrations.

≈ marks a conversion by molar mass, not a printed value.

As to `O=C(Nc1ccc(Br)cc1-c1nc2ccccc2c(=O)[nH]1)c1cccc(S(=O)(=O)N2CCOCC2)c1` [Example 13, N-[4-Bromo-2-(4-oxo-3,4-dihydroquinazolin-2-yl)phenyl]-3-(morpholin-4-ylsulfonyl)benzamide], the MIC (as a rule, the lowest concentration that inhibits growth of the organism) in the data set on SAUR 9218 came to 4 µg/mL (≈ 7.02 µM). As for `O=C(Nc1ccc(Br)cc1C1=Nc2ccccc2S(=O)(=O)N1)c1cccc(S(=O)(=O)N2CCc3cc(Cl)ccc32)c1` [Example 14, N-[4-Bromo-2-(1,1-dioxido-2H-1,2,4-benzothiadiazin-3-yl)phenyl]-3-[(5-chloro-2,3-dihydro-1H-indol-1-yl)sulfonyl]benzamide], the MIC against SAUR 9218 was 64 µg/mL (≈ 95.2 µM). Turning to `CC(C)Oc1cccc(C(=O)Nc2ccc(Br)cc2-c2noc(=O)[nH]2)c1` [Example 15, N-[4-Bromo-2-(5-oxo-4,5-dihydro-1,2,4-oxadiazol-3-yl)phenyl]-3-isopropoxybenzamide], the minimal inhibitory concentration (MIC) in the data set on SAUR 9218 amounted to 32 µg/mL (≈ 76.5 µM). On to `O=C(Nc1ccc(Br)cc1-c1noc(=O)[nH]1)c1cccc(Oc2ccccc2)c1` [Example 16, N-[4-Bromo-2-(5-oxo-4,5-dihydro-1,2,4-oxadiazol-3-yl)phenyl]-3-phenoxybenzamide], for which the melting point (in general, the temperature of the solid-liquid transition) lay within 185 to 187 °C. Also, the MIC against SAUR 9218 was 16 µg/mL (≈ 35.4 µM). On to `O=C(Nc1ccc(Br)cc1-c1nnn[nH]1)c1cccc(S(=O)(=O)N2CCOCC2)c1` [Example 17, N-[4-bromo-2-(1H-tetraazol-5-yl)phenyl]-3-(morpholin-4-ylsulfonyl)benzamide], for which the melting point lay in the range of 228 to 230 °C. This molecule also returned an MIC against SAUR 9218 of 64 µg/mL (≈ 130 µM). Consider `N#Cc1ccc(NC(=O)c2cccc(S(=O)(=O)N3CCOCC3)c2)c(-c2n[nH]c(=O)o2)c1` [Example 18, N-[4-cyano-2-(5-oxo-4,5-dihydro-1,3,4-oxadiazol-2-yl)phenyl]-3-(morpholin-4-ylsulfonyl)benzamide], for which the melting point was in the range of 283 to 285 °C. Further, the MIC in the data set with SAUR 9218 is more than 128 µg/mL. With `O=C(Nc1ccc(Br)cc1-c1noc(=O)[nH]1)c1cccc(S(=O)(=O)N2CCOCC2)c1` [Example 19, N-[4-bromo-2-(5-oxo-4,5-dihydro-1,2,4-oxadiazol-3-yl)phenyl]-3-(morpholin-4-ylsulfonyl)benzamide], the melting point fell in the range of 220 to 223 °C. This molecule also had a minimal inhibitory concentration (MIC) against SAUR 9218 of 128 µg/mL (≈ 251 µM). `N#Cc1ccc(NC(=O)c2cccc(S(=O)(=O)N3CCOCC3)c2)c(-c2nnn[nH]2)c1` [Example 20, N-[4-cyano-2-(1H-tetraazol-5-yl)phenyl]-3-(morpholin-4-ylsulfonyl)benzamide] had a melting point of 230 to 232 °C. In the data set on SAUR 9218, this molecule returned an MIC of 64 µg/mL (≈ 146 µM). Take `CC(C)(C)C(=O)OCn1nnc(-c2cc(Br)ccc2NC(=O)c2cccc(S(=O)(=O)N3CCOCC3)c2)n1` [Example 21, [5-(5-bromo-2-{[3-(morpholin-4-ylsulfonyl)benzoyl]amino}phenyl)-2H-tetraazol-2-yl]methyl pivalate]: the melting point was in the range of 210 to 212 °C. The molecule further had an MIC in the data set on SAUR 9218 of more than 64 µg/mL. Taken in the same sequence, the figures for `N#Cc1ccc(NC(=O)c2ccc(S(=O)(=O)N3CCc4cc(Cl)ccc43)cc2)c(-c2n[nH]c(=O)o2)c1` [Example 22, 4-[(5-chloro-2,3-dihydro-1H-indol-1-yl)sulfonyl]-N-[4-cyano-2-(5-oxo-4,5-dihydro-1,3,4-oxadiazol-2-yl)phenyl]benzamide] were 262 to 264 °C and 32 µg/mL (≈ 61.3 µM). As for `N#Cc1ccc(NC(=O)c2ccc(S(=O)(=O)N3CCc4cc(Cl)ccc43)cc2)c(-c2n[nH]c(=S)o2)c1` [Example 23, 4-[(5-chloro-2,3-dihydro-1H-indol-1-yl)sulfonyl]-N-[4-cyano-2-(5-thioxo-4,5-dihydro-1,3,4-oxadiazol-2-yl)phenyl]benzamide], the melting point fell in the range of 225 to 229 °C. The same molecule registered an MIC in the data set on SAUR 9218 of 8 µg/mL (≈ 14.9 µM). With `O=C(Nc1ccc(I)cc1-c1nnn[nH]1)c1cc2cccc(S(=O)(=O)c3ccccc3)c2[nH]1` [Example 24, N-[4-iodo-2-(1H-tetraazol-5-yl)phenyl]-7-(phenylsulfonyl)-1H-indole-2-carboxamide], it took 0.5 µg/mL (≈ 0.877 µM) to inhibit growth in the data set with SAUR 9218 (MIC). Regarding `N#Cc1ccc(NC(=O)c2cc3cccc(S(=O)(=O)c4ccccc4)c3[nH]2)c(-c2nnn[nH]2)c1` [Example 25, N-[4-cyano-2-(1H-tetraazol-5-yl)phenyl]-7-(phenylsulfonyl)-1H-indole-2-carboxamide], the melting point fell in the range of 293 to 295 °C. In the data set on SAUR 9218, this molecule yielded an MIC of 0.125 µg/mL (≈ 0.266 µM). Regarding `N#Cc1ccc(NC(=O)c2cccc(S(=O)(=O)N3CCc4cc(Cl)ccc43)c2)c(C(=O)Nc2nccs2)c1` [Example 26, 2-({3-[(5-Chloro-2,3-dihydro-1H-indol-1-yl)sulfonyl]benzoyl}amino)-5-cyano-N-(1,3-thiazol-2-yl)benzamide], in the data set on SAUR 9218, the MIC turned out to be 8 µg/mL (≈ 14.2 µM). On the same count and under the same terms, then `CN(c1ccc(Cl)cc1)S(=O)(=O)c1coc(C(=O)Nc2ccc(Br)cc2-c2nnn[nH]2)c1` [Example 27], with 16 µg/mL (≈ 29.8 µM). Same read-out and setting: then `CN(c1ccc(Cl)cc1)S(=O)(=O)c1csc(C(=O)Nc2ccc(Br)cc2-c2nnn[nH]2)c1` [Example 28, N-[4-Bromo-2-(1H-tetraazol-5-yl)phenyl]-4-{[(4-chlorophenyl)(methyl)amino]sulfonyl}thiophene-2-carboxamide], with 16 µg/mL (≈ 28.9 µM).

Consider `CN(c1ccc(Cl)cc1)S(=O)(=O)c1ccc(C(=O)Nc2ccc(Br)cc2-c2nnn[nH]2)s1` [Example 29, N-[4-Bromo-2-(1H-tetraazol-5-yl)phenyl]-5-{[(4-chlorophenyl)(methyl)amino]sulfonyl}thiophene-2-carboxamide], for which 8 µg/mL (≈ 14.4 µM) was the least that counted as inhibitory with SAUR 9218 (MIC). As to `CC(C)Sc1ccc(C(=O)Nc2ccc(Br)cc2-c2noc(=O)[nH]2)cn1` [Example 31, N-[4-bromo-2-(5-oxo-4,5-dihydro-1,2,4-oxadiazol-3-yl)phenyl]-6-(isopropylthio)nicotinamide], in the data set on SAUR 9218, the lowest concentration to inhibit growth (MIC) was 8 µg/mL (≈ 18.4 µM). On to `O=C(Nc1ccc(Br)cc1-c1nnn[nH]1)c1ccc(S(=O)(=O)N2CCc3ccccc32)cc1` [N-[4-bromo-2-(1H-1,2,3,4-tetraazol-5-yl)phenyl]-4-(2,3-dihydro-1H-indol-1-ylsulfonyl)benzamide], for which, in the data set with SAUR 9218, the MIC was determined as 2 µg/mL (≈ 3.81 µM). On to `O=C(Nc1ccc(Br)cc1-c1nnn[nH]1)c1ccc(S(=O)(=O)N2CCc3cc(Cl)ccc32)cc1` [N-[4-bromo-2-(1H-1,2,3,4-tetraazol-5-yl)phenyl]-4-[(5-chloro-2,3-dihydro-1H-indol-1-yl)sulfonyl]benzamide], for which 4 µg/mL (≈ 7.14 µM) was the least that counted as inhibitory in the data set on SAUR 9218 (MIC). Still for that read-out and setting: to `COc1cccc(C(=O)Nc2ccc(Br)cc2-c2nnn[nH]2)c1` [N-[4-bromo-2-(1H-tetraazol-5-yl)phenyl]-3-methoxybenzamide] belongs 64 µg/mL (≈ 171 µM). Take `O=C(Nc1ccc(Br)cc1-c1noc(=O)[nH]1)c1ccc(S(=O)(=O)N2CCc3cc(Cl)ccc32)cc1` [N-[4-bromo-2-(5-oxo-4,5-dihydro-1,2,4-oxadiazol-3-yl)phenyl]-4-[(5-chloro-2,3-dihydro-1H-indol-1-yl)sulfonyl]benzamide]: the MIC in the data set with SAUR 9218 was 8 µg/mL (≈ 13.9 µM). In the data set on SAUR 9218, `O=C(Nc1ccc(Br)cc1-c1n[nH]c(=O)o1)c1ccc(S(=O)(=O)N2CCc3cc(Cl)ccc32)cc1` [N-[4-bromo-2-(5-oxo-4,5-dihydro-1,3,4-oxadiazol-2-yl)phenyl]-4-[(5-chloro-2,3-dihydro-1H-indol-1-yl)sulfonyl]benzamide] registered an MIC of more than 128 µg/mL. In the data set with SAUR 9218, `CN(c1ccc(Cl)cc1)S(=O)(=O)c1ccc(C(=O)Nc2ccc(Br)cc2-c2n[nH]c(=O)o2)cc1` [N-[4-bromo-2-(5-oxo-4,5-dihydro-1,3,4-oxadiazol-2-yl)phenyl]-4-{[4-chloro(methyl)anilino]sulfonyl}benzamide] showed an MIC of 2 µg/mL (≈ 3.55 µM).

In the data set with SAUR 9218, `CN(c1ccc(Cl)cc1)S(=O)(=O)c1ccc(C(=O)Nc2ccc(Br)cc2-c2noc(=S)[nH]2)cc1` [N-[4-bromo-2-(5-thioxo-4,5-dihydro-1,2,4-oxadiazol-3-yl)phenyl]-4-{[4-chloro(methyl)anilino]sulfonyl}benzamide] returned an MIC of 16 µg/mL (≈ 27.6 µM).
